Four compounds from article PMC8550792, “Evolution of kinase polypharmacology across HSP90 drug discovery” (Cell Chemical Biology, 2021) can be followed below.

Common to all, as to assay: biochemical
Assay type in all cases: biochemical

Assay [1] deals with T1, 382 unique human kinases (Homo sapiens, UniProt P12931, T341M).
T1 construct: purchased Reaction Biology (HotSpot contract assay)
To be noted: kinase c-Src (T341M), compound 10 uM; for remaining activity at 10 µM: read-out: % Enzyme Activity (relative to DMSO controls).

In assay [2] the target is T2, 382 unique human kinases (Homo sapiens, UniProt Q13237).
T2 construct: purchased Reaction Biology (HotSpot contract assay)
The settings on record: PKG2/PRKG2; compound at 10 uM; duplicate values; read-out: % Enzyme Activity (relative to DMSO controls).

The target of assay [3] is T3, 382 unique human kinases (Homo sapiens, UniProt Q13164).
T3 construct: purchased Reaction Biology (HotSpot contract assay)
The settings on record: kinase ERK5/MAPK7, compound 10 uM; for remaining activity at 10 µM: read-out: % Enzyme Activity (relative to DMSO controls).

Assay [4] concerns the target T4, 382 unique human kinases (Homo sapiens, UniProt Q86UX6).
T4 construct: purchased Reaction Biology (HotSpot contract assay)
To be noted: STK32C/YANK3, 10 uM; for remaining activity at 10 µM: read-out: % Enzyme Activity (relative to DMSO controls).

Assay [5] addresses T5, 382 unique human kinases (Homo sapiens, UniProt Q9H422).
T5 construct: purchased Reaction Biology (HotSpot contract assay)
The settings on record: HIPK3, compound at 10 uM, duplicate values; for remaining activity at 10 µM: read-out: % Enzyme Activity (relative to DMSO controls).

In assay [6] the target is T6, 382 unique human kinases (Homo sapiens, UniProt Q02763, R849W).
T6 construct: purchased Reaction Biology (HotSpot contract assay)
The settings on record: kinase TIE2 (R849W), compound 10 uM; for remaining activity at 10 µM: read-out: % Enzyme Activity (relative to DMSO controls).

For assay [7], the target named is 382 unique human kinases (Homo sapiens, UniProt Q9H1R3). To be noted: kinase MLCK2/MYLK2, compound 10 uM; for remaining activity at 10 µM: read-out: % Enzyme Activity (relative to DMSO controls).
In assay [8] the target is T7, 382 unique human kinases (Homo sapiens, UniProt P10721, D816F).
T7 construct: purchased Reaction Biology (HotSpot contract assay)
To be noted: c-Kit (D816F), [ATP] 20 µM, compound 10 uM; for remaining activity at 10 µM: read-out: % Enzyme Activity (relative to DMSO controls).

Assay [9] deals with T8, 382 unique human kinases (Homo sapiens, UniProt O15146).
T8 construct: purchased Reaction Biology (HotSpot contract assay)
T8 sequence (O15146 24-869): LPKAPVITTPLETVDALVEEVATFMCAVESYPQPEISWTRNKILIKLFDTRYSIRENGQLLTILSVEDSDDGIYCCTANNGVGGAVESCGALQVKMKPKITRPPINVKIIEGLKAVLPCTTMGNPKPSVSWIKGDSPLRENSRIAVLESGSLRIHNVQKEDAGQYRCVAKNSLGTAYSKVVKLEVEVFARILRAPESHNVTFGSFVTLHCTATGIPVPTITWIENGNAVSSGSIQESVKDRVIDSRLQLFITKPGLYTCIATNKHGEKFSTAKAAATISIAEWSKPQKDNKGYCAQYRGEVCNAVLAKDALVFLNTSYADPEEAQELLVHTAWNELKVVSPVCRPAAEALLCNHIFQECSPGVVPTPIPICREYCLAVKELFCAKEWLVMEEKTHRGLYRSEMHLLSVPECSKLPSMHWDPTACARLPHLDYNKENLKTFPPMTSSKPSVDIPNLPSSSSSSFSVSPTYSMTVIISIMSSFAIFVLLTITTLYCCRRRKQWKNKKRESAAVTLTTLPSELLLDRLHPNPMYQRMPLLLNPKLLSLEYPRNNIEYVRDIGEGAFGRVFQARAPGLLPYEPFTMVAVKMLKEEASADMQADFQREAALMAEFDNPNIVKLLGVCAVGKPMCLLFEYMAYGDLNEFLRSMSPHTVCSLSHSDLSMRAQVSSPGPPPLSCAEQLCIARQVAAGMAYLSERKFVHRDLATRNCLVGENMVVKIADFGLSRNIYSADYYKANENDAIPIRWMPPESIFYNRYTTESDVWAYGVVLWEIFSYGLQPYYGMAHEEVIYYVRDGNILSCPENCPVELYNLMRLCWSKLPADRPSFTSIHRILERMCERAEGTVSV
To be noted: MUSK, [ATP] 15 µM, compound 10 uM; for remaining activity at 10 µM: read-out: % Enzyme Activity (relative to DMSO controls).

For assay [10], the target named is T9, 382 unique human kinases (Homo sapiens, UniProt P51813).
T9 construct: purchased Reaction Biology (HotSpot contract assay)
T9 sequence (P51813 1-675): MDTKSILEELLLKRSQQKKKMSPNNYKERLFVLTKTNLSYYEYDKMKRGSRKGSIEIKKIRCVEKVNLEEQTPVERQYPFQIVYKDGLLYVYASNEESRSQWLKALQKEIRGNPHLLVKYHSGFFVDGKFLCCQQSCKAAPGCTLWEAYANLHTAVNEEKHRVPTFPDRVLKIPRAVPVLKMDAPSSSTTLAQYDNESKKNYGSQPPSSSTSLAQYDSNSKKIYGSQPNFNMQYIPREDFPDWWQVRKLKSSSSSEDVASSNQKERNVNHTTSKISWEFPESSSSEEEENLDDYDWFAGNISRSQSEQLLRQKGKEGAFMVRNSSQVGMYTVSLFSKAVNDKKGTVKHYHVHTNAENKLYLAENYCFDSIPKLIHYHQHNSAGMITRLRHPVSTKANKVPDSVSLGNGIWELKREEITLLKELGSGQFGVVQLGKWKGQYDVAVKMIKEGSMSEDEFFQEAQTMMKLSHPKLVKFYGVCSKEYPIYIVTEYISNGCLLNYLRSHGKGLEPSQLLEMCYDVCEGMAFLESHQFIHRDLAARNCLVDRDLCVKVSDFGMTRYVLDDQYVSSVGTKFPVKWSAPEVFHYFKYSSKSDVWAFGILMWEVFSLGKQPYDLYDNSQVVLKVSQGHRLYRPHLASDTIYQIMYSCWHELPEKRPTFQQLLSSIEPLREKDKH
The settings on record: BMX/ETK, [ATP] 50 µM, compound 10 uM; for remaining activity at 10 µM: read-out: % Enzyme Activity (relative to DMSO controls).

The target of assay [11] is T10, 382 unique human kinases (Homo sapiens, UniProt P10721, D816V/V560G).
T10 construct: purchased Reaction Biology (HotSpot contract assay)
The settings on record: c-Kit (V560G/D816V), [ATP] 20 µM, compound 10 uM; for remaining activity at 10 µM: read-out: % Enzyme Activity (relative to DMSO controls).

T10 sequence (P10721 26-976 V560G/D816V): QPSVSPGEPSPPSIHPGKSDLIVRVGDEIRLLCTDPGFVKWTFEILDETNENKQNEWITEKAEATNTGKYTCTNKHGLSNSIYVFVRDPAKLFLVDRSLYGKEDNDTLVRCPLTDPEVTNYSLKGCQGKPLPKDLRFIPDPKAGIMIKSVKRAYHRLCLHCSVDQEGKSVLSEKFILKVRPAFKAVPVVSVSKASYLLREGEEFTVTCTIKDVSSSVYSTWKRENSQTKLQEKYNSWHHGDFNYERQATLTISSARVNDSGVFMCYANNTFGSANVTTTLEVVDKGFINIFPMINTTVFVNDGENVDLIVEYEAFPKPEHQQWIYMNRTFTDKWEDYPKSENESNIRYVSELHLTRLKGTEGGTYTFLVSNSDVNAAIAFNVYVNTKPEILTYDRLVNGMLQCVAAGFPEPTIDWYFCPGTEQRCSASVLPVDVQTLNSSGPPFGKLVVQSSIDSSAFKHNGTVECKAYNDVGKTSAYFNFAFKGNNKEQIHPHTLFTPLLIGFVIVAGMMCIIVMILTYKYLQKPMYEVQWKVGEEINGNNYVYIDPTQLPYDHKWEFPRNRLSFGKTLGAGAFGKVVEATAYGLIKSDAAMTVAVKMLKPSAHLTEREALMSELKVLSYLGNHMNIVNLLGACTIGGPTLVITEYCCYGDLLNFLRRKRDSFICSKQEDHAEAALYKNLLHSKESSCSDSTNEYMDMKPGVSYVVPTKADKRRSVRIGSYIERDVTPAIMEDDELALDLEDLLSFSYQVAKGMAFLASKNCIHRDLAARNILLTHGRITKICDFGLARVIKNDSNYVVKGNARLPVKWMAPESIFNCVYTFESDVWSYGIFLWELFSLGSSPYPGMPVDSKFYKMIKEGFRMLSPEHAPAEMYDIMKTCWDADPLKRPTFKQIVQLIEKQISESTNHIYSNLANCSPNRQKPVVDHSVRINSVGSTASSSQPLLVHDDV
T3 sequence (Q13164 whole entry): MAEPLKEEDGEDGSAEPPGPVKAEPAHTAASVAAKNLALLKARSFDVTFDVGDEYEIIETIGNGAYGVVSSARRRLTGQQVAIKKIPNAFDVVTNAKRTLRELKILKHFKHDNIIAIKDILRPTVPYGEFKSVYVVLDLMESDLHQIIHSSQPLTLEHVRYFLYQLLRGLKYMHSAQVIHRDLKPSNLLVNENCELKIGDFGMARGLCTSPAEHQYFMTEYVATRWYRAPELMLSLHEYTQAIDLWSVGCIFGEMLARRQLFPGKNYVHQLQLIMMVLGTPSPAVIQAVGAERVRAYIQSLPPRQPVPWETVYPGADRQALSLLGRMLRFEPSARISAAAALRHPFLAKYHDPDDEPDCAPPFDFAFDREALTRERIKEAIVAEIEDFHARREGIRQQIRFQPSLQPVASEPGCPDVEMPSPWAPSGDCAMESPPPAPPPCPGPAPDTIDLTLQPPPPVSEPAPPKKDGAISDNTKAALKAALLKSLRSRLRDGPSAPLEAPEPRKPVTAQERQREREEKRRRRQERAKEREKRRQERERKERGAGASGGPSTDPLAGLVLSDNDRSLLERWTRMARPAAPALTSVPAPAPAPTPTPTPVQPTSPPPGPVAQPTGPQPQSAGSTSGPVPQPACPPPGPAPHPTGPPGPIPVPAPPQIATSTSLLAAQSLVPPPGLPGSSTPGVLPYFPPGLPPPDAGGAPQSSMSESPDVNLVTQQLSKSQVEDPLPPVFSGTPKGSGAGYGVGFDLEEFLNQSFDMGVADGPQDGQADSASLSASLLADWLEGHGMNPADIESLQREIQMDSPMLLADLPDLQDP
T4 sequence (Q86UX6 whole entry): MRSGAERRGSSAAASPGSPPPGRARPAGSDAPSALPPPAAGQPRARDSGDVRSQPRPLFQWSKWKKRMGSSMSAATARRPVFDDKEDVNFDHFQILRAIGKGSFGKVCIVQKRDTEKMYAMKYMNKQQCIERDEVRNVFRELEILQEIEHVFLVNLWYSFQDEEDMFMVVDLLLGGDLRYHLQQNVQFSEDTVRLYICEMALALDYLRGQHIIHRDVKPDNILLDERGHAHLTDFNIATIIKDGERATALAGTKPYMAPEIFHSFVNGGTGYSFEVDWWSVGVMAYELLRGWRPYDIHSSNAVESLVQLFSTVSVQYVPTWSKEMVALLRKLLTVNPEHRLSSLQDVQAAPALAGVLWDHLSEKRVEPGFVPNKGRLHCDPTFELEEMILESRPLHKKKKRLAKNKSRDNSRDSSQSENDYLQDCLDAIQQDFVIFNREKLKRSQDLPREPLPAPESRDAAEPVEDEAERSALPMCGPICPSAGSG
382 unique human kinases (Homo sapiens, UniProt Q9H1R3), sequence (Q9H1R3 whole entry): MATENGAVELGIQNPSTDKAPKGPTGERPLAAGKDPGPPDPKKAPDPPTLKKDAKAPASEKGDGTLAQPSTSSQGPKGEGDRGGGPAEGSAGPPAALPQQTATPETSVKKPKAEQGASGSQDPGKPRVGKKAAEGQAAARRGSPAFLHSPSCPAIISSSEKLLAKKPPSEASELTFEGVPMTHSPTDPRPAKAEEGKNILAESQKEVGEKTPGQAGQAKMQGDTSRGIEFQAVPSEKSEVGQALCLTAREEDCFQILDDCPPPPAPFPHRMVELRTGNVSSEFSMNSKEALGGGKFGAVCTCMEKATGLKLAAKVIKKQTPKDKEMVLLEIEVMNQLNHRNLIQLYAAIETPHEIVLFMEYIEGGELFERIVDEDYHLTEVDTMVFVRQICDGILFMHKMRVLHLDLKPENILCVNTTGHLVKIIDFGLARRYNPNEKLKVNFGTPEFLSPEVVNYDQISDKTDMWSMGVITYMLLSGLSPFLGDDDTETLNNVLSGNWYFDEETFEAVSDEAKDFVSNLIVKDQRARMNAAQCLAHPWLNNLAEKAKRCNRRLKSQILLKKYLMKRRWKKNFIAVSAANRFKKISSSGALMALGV
T6 sequence (Q02763 23-1124 R849W): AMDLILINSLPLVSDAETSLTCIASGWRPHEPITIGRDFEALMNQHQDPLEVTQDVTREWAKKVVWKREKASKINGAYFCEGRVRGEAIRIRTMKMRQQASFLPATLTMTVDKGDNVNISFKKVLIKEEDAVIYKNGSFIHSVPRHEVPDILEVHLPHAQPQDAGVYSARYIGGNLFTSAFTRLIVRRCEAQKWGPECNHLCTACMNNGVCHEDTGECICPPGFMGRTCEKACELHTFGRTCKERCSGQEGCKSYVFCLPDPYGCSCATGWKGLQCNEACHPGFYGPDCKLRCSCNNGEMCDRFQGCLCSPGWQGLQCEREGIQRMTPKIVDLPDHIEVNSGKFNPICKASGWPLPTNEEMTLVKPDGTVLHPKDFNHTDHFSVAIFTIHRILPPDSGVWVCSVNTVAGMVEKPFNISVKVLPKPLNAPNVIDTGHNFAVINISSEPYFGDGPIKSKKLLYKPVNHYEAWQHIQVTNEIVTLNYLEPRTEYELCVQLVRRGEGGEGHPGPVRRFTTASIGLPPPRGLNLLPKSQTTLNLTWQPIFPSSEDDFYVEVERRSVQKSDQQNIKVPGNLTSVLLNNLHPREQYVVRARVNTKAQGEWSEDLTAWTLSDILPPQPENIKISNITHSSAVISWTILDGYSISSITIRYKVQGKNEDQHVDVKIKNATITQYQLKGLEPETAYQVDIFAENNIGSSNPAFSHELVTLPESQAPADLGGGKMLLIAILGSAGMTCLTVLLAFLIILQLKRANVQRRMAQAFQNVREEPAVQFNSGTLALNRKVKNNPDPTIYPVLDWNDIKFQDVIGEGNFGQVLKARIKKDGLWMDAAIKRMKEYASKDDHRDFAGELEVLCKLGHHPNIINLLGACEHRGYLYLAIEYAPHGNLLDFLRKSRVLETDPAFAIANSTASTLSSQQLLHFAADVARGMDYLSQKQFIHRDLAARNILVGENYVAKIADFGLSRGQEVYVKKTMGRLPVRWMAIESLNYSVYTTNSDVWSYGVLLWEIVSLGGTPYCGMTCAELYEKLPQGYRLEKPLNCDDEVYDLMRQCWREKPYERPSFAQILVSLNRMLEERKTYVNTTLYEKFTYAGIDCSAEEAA
T7 sequence (P10721 26-976 D816F): as the sequence (P10721 26-976 V560G/D816V) above, with G535V, V791F counted along it
T2 sequence (Q13237 whole entry): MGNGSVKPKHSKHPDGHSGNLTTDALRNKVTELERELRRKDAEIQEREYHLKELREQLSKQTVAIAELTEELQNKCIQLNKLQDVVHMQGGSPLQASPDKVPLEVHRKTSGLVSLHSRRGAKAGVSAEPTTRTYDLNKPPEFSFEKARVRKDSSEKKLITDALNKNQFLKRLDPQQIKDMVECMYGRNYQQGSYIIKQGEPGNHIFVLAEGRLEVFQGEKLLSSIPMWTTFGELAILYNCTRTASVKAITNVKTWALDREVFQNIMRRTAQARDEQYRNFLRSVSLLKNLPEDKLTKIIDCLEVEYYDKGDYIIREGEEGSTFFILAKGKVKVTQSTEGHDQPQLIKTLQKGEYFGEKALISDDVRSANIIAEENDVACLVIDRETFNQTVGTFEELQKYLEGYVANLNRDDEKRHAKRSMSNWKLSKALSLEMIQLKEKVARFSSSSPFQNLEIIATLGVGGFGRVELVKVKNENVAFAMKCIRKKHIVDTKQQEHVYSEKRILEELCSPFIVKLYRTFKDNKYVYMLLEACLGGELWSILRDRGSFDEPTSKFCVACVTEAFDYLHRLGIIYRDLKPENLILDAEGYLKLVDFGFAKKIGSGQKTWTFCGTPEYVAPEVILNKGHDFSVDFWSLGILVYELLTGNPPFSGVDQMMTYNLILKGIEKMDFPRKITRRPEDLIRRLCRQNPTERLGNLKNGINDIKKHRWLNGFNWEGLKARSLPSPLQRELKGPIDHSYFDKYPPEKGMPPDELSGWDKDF

`CC(C)c1cc(-c2n[nH]c(=O)n2-c2ccc3c(ccn3C)c2)c(O)cc1O` [Ganetespib (STA9090)]: the remaining activity at 10 µM at 382 unique human kinases [1] was 86.3%; on 382 unique human kinases [2], 108%; at 382 unique human kinases [3] it was 91.3%; at 382 unique human kinases [4], 109%; at 382 unique human kinases [5], 111%; on 382 unique human kinases [6], 83.1%. In addition, on 382 unique human kinases [7], the remaining activity at 10 µM is 80.2%.
`CC(C)c1cc(-c2n[nH]c(=O)n2-c2ccc3c(ccn3C)c2)c(O)cc1O` [Ganetespib]: the remaining activity at 10 µM on 382 unique human kinases [8] turned out to be 31%; on 382 unique human kinases [9] it was 51.1%; on 382 unique human kinases [10], 46.7%; on 382 unique human kinases [11] it was 24.3%.
Turning to `CCNC(=O)c1noc(-c2cc(C(C)C)c(O)cc2O)c1-c1ccc(CN2CCOCC2)cc1` [Luminespib (AUY-922)], the “% Enzyme Activity (relative to DMSO controls)” value is recorded as 97.19% at 382 unique human kinases [1]; 86.48% on 382 unique human kinases [3]; 69.42% on 382 unique human kinases [4]; 106.96% at 382 unique human kinases [5]; 89.68% at 382 unique human kinases [6]; 91.17% on 382 unique human kinases [7]. Besides, the remaining activity at 10 µM on 382 unique human kinases [1] worked out at 98.3%; on 382 unique human kinases [2], 104%; at 382 unique human kinases [3], 86.6%; at 382 unique human kinases [4], 69.9%; at 382 unique human kinases [5], 108%; on 382 unique human kinases [6], 90.9%. Besides, the remaining activity at 10 µM on 382 unique human kinases [7] came to 95.1%.
Turning to `CCNC(=O)c1noc(-c2cc(C(C)C)c(O)cc2O)c1-c1ccc(CN2CCOCC2)cc1` [Luminespib], the “% Enzyme Activity (relative to DMSO controls)” value stood at 70.41% at 382 unique human kinases [8], 89.25% at 382 unique human kinases [9], 102.71% at 382 unique human kinases [10] and 61.63% on 382 unique human kinases [11]. In addition, the remaining activity at 10 µM worked out at 70.9% at 382 unique human kinases [8], 90.6% on 382 unique human kinases [9], 103% at 382 unique human kinases [10] and 61.7% on 382 unique human kinases [11].
